The subject of one assay is corneodesmosin. As to the kind of experiment: Corneodesmosin signal after incubation of SC acetone powder with semi-purified AGA (immunoblot). Type of assay: biochemical. Conditions: 8 hours, 37° C., pH 8. How it is done:
An SC acetone powder obtained by the “varnish stripping” technique as described by Mehul B. et al. (2000, The Journal of Biological Chemistry, Vol. 275, No. 17, 12841-12847) is incubated with a semi-purified AGA extract in the presence or otherwise of 5 mM L-asparagine at the rate of 100 μl of incubation solution per mg of acetone powder. The incubations are carried out in 0.1 M Tris-HCl buffer, pH 8, at 37° C., for 8 hours, with stirring. A test t0 is made as well as a control: buffer alone.
The soluble proteins of each sample are then extracted under denaturing conditions (SDS, DTT and boiling). The total proteins are assayed according to the Bradford method and the concentrations are aligned at 0.6 mg/ml in Laemmli extraction buffer.
An SDS-PAGE separation is then carried out, followed by a transfer onto PVDF membrane marketed by Millipore. The corneodesmosin is immunodetected with the monoclonal antibody G3619 described in Serre G. et al. (1991, J. Invest. Dermatol., 97, 1061-1072) diluted 1/12500.
Each blot is then stained with a 0.03% amido black solution (SIGMA) in order to normalize the quantity of corneodesmosin relative to a quantification of the keratins.
FIG. 2 presents the variation of the corneodesmosin signal after incubation of various quantities of semi-purified AGA with an acetone powder for 8 hours.

Assay [1] deals with T1, AGA activity purified from the SC (aspartylglucosaminidase, EC 3.5.1.26) (Homo sapiens, UniProt P20933).
T1 construct: led to the identification of the A chain of AGA (band of 24 kDa); and of the B chain of AGA (bands of 16 and 15 kDa); from tissue; host or cells: human stratum corneum, scraped from the anterior surface of the leg
T1 sequence (P20933 24-205 limits assumed): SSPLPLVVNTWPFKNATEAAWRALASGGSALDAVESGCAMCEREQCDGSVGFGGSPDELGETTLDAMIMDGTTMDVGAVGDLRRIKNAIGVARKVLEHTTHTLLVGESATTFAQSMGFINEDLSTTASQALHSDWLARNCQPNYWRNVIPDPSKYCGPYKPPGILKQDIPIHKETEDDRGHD
T1 sequence (P20933 206-346 limits assumed): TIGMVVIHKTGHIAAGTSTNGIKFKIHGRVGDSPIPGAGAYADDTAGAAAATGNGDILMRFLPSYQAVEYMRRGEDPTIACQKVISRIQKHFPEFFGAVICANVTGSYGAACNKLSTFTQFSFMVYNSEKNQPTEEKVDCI
As to the kind of experiment: AGA activity assay with the fluorescent substrate Asp-AMC. Type of assay: biochemical. Conditions: L-asparagine used at 1.25 mM. How it is done:
The purification of AGA is monitored by assaying of activity with the fluorescent substrate L-aspartic acid beta(7-amido-4-methylcoumarin) (Asp-AMC) according to the method described by Mononen I. T. et al., 1993, Analytical Biochemistry, 208, 372-374. 10 μl of each eluted fraction are incubated for 24 h at 37° C. with 100 μl of Asp-AMC substrate diluted to 1 mM in 0.1 M Tris-HCl buffer, pH 8. The fluorescence is quantified on a Biolumin reader (excitation/emission: 340/450 nm).
The AGA activity was assayed with the substrate Asp-AMC in various SC extracts.

The results in this text go back to patent US20040197299A1, “Topically applicable cosmetic/dermatological compositions comprising hydrolase polypeptides having amidase activity and/or products modulating the activity thereof” (SOCIETE L'OREAL, S.A., priority 2003, published 2004).

Consider “aspartylglucosaminidase AGA (EC 3.5.1.26)”, for which the “variation of the quantity of corneodesmosin (prodesquamating effect)” value in the assay with corneodesmosin (SC acetone powder incubated with increasing quantities of semi-purified AGA) is on record as “decrease in the quantity of corneodesmosin”. `NC(=O)C[C@H](N)C(=O)O` [L-asparagine]: the “inhibition of the AGA activity purified from the SC” value in assay [1] is “inhibit the AGA activity”. Moreover, the “inhibition of the AGA-induced decrease in corneodesmosin” value in the assay with corneodesmosin (L-asparagine at 5 mM, 10 μl of AGA condition) was “inhibits this effect”.
